In ChEMBL document CHEMBL6115021, “Design of Benzyl-triazolopyrimidine-Based NADPH Oxidase Inhibitors Leads to the Discovery of a Potent Dual Covalent NOX2/MAOB Inhibitor” (J Med Chem, 2025):
pEC50, pIC50: −log10 of the molar value. Active and inactive are the calls of the source. The rule behind the calls is not given here.

Legend:
[1] = target: Albumin (Bos taurus, UniProt P02769); assay: Binding affinity to bovine serum albumin 5 to 20 uM incubated for 30 mins by mass spectrometry analysis; assay type: ADME; settings: cattle, isolated protein, 0.5 h, dose 5-20 µM
Sequence of Albumin (P02769 whole entry): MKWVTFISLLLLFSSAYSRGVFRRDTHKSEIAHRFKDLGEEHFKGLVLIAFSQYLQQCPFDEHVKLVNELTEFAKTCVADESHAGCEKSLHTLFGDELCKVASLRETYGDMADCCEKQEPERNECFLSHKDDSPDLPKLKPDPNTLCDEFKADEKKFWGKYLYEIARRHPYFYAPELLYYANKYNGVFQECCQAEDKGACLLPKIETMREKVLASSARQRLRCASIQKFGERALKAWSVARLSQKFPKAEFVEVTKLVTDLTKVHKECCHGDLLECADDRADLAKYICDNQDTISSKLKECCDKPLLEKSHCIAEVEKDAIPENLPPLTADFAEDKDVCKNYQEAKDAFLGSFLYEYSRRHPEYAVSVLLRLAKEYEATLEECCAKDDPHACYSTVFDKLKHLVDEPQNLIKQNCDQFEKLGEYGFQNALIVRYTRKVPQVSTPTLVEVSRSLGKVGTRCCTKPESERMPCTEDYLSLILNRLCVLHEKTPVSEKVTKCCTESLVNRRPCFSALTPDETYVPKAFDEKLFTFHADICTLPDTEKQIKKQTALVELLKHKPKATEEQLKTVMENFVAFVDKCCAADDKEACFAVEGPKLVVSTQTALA

[2] = tested on: BV-2; assay: Neuroprotective activity against LPS/IFN-gamma induced mouse BV-2 cells assessed as reduction in ROS level by measuring change in fluorescence intensity at 10 uM incubated for 48 hrs by CellROX reagent based fluorescence analysis; assay type: functional, cell-based
[3] = tested on: BV-2; assay: Neuroprotective activity against LPS/IFN-gamma induced mouse BV-2 cells assessed as effect on cell viability at 10 uM incubated for 48 hrs by MTT assay; assay type: functional, cell-based
[4] = target: T1, NADPH oxidase 2 (Homo sapiens, UniProt P04839); assay: Inhibition of human NOX2
T1 sequence (P04839 whole entry): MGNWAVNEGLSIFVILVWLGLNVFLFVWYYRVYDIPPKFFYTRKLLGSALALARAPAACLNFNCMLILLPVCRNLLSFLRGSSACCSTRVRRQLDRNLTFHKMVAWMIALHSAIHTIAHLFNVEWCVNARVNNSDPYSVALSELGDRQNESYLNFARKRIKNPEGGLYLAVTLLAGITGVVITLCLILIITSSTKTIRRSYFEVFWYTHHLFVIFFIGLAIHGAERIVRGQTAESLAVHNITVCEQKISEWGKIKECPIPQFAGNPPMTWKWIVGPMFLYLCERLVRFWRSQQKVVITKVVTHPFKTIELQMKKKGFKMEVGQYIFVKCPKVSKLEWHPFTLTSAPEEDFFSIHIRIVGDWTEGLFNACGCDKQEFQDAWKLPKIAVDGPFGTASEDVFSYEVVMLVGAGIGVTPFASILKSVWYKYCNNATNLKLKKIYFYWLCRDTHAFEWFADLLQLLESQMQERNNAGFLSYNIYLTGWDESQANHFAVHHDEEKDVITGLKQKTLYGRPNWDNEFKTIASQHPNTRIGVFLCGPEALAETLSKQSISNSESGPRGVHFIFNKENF

[5] = target: T2, NADPH oxidase 4 (Homo sapiens, UniProt Q9NPH5); assay: Inhibition of human NOX4
T2 sequence (Q9NPH5 whole entry): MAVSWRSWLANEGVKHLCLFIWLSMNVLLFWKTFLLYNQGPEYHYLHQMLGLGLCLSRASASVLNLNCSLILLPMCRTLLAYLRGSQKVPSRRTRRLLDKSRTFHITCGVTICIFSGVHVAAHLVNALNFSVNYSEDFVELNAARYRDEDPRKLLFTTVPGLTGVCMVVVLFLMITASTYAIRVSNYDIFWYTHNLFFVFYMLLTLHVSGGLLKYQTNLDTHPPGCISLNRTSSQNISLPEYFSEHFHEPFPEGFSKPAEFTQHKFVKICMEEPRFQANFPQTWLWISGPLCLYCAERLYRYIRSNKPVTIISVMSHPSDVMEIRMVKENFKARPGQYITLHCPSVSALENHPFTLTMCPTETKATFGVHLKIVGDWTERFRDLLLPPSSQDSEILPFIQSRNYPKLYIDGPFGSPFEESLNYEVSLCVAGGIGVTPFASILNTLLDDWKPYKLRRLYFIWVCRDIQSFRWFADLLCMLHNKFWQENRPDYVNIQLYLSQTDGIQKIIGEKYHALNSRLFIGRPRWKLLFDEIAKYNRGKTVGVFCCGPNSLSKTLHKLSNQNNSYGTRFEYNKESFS

[6] = target: T1, NADPH oxidase 2; assay: Inhibition of human NOX2 by cell based assay
[7] = target: T3, NADPH oxidase 1 (Homo sapiens, UniProt Q9Y5S8); assay: Inhibition of human NOX1
T3 sequence (Q9Y5S8 whole entry): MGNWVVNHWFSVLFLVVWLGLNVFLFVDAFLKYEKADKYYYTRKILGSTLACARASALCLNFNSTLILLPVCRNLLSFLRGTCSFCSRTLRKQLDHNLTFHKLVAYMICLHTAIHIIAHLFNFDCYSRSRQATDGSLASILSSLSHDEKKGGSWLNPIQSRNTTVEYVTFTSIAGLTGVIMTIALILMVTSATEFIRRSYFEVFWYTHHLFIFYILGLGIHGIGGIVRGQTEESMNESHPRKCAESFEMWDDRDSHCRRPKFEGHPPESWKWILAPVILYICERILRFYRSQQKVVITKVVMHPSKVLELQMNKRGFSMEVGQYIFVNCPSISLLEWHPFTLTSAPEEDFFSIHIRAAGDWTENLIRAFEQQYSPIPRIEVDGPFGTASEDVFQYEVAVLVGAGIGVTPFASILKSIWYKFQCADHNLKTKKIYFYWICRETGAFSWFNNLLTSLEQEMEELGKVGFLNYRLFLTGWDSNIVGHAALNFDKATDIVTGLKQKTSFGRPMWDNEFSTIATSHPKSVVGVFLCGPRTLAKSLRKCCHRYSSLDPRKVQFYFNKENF

[8] = target: T4, NADPH oxidase 5 (Homo sapiens, UniProt Q96PH1); assay: Inhibition of human NOX5
T4 sequence (Q96PH1 whole entry): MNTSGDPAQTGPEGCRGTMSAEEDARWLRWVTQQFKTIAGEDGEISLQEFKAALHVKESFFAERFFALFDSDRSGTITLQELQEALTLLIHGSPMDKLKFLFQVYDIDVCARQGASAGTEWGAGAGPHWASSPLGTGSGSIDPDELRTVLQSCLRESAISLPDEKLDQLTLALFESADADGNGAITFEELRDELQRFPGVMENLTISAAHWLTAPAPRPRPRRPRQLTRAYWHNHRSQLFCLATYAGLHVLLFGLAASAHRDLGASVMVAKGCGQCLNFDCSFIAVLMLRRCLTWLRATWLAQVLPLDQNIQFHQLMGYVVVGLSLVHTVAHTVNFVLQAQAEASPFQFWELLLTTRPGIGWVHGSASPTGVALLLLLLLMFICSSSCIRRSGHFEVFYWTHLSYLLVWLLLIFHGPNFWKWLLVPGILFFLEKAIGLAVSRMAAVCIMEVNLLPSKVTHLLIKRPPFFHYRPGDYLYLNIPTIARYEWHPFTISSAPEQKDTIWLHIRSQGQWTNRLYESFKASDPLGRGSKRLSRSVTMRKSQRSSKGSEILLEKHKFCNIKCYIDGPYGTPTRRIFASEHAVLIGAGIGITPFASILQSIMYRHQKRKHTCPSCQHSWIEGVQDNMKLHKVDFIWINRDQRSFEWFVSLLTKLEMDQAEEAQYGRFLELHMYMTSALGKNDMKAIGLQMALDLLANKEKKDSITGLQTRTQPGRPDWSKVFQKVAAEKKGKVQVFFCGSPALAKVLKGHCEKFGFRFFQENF

| SMILES | pIC50 [4] | pIC50 [5] | pEC50 [6] | Activity [2] | Activity [3] | also measured |
| --- | --- | --- | --- | --- | --- | --- |
| C#CCN(C)Cc1ccc(Cn2nnc3c(Sc4nc5ccccc5o4)ncnc32)cc1 |  |  |  | Active | Active | Activity [1]: Not_active |
| Clc1ncnc2c1nnn2Cc1ccccc1 | 5.29 | 5.24 |  |  |  |  |
| c1ccc(Cn2nnc3c(Sc4nc5ccccc5o4)ncnc32)cc1 |  |  |  | Active |  |  |
| C#CCN[C@@H]1CCc2ccccc21 |  |  |  |  | Active |  |
| O=C1c2ccccc2-c2cc(N3CCC4(CC3)OCCO4)nc3cccc1c23 | 5.29 | 5.24 | 5.68 |  |  |  |
| c1ccc(-c2cc(NC3CCNCC3)nc3ccccc23)cc1 | 5.11 | 4.09 | 5.24 |  |  | pIC50 [7]: 4.15; pIC50 [8]: 4.55 |
